Reference: patent US8247211B2, “Glycopeptide antibiotics” (American Cyanamid Company, priority 2001, dated 2012)
Converted amounts (≈) assume the structure as drawn.

Experiments:
Assay in all cases: In vitro antibacterial evaluation: minimum inhibitory concentration (MIC), broth dilution method
Format in all cases: cell-based
[1] = system: Enterococcus sp.
Protocol: (§1) The minimum inhibitory concentration (MIC), the lowest concentration of the antibiotic which inhibits growth of the test organism, is determined by the broth dilution method using Muller-Hinton II […] (Baltimore Biological Laboratories) following the recommendations of the National Committee for Clinical Laboratory Standards [Methods for dilution antimicrobial susceptibility tests for bacteria that grow aerobically, approved standard M7-A2, National Committee for Clinical Laboratory Standards, Villanova, Pa].
(§2) An inoculum level of 5×10^5 CFU/mL, and a range of antibiotic concentrations (64-0.06 μg/mL) is used. […] The test organisms include a spectrum of Gram-positive bacteria comprised of Staphylococcus sp., Streptococcus sp. and Enterococcus sp. These organisms include recent clinical isolates that are resistant to methicillin, penicillin and/or vancomycin.

[2] = system: Staphylococcus sp.; settings: broth dilution, 18 hours at 35° C.
Protocol: as §1, §2

[3] = system: Streptococcus sp.
Protocol: as §1, §2

[4] = system: Escherichia coli
Protocol: as §1, §2

MIC Enterococcus faecalis (ATCC 29212) ([1]; strain ATCC 29212): 8 µg/mL (≈ 5.54 µM) | MIC Enterococcus faecalis (GC 2242) ([1]; strain GC 2242): 4 µg/mL (≈ 2.77 µM) | MIC Enterococcus faecium (GC 2243) ([1]; strain GC 2243): 8 µg/mL (≈ 5.54 µM) | MIC Enterococcus faecalis (GC 2691) ([1]; strain GC 2691): 4 µg/mL (≈ 2.77 µM) | MIC Enterococcus faecalis (GC 3059) ([1]; strain GC 3059): 8 µg/mL (≈ 5.54 µM) | MIC Enterococcus faecalis (GC 4552) ([1]; strain GC 4552): 8 µg/mL (≈ 5.54 µM) | MIC Enterococcus faecalis (GC 4553) ([1]; strain GC 4553): 8 µg/mL (≈ 5.54 µM) | MIC Enterococcus faecalis (GC 4554) ([1]; strain GC 4554): 8 µg/mL (≈ 5.54 µM) | MIC Enterococcus faecium (GC 4556) ([1]; strain GC 4556): 8 µg/mL (≈ 5.54 µM) | MIC Enterococcus faecium (GC 4557) ([1]; strain GC 4557): 4 µg/mL (≈ 2.77 µM) | MIC Enterococcus avium (GC 4558) ([1]; strain GC 4558): 8 µg/mL (≈ 5.54 µM) | MIC Enterococcus faecalis (GC 6189) ([1]; strain GC 6189): 8 µg/mL (≈ 5.54 µM) | MIC Coagulase Negative Staphylococcus (GC 4547) ([2]; 5×10^5 CFU/mL): 2 µg/mL (≈ 1.39 µM) | MIC Coagulase Negative Staphylococcus (GC 4548) ([2]; 5×10^5 CFU/mL): 1 µg/mL (≈ 0.693 µM) | MIC Coagulase Negative Staphylococcus (GC 4549) ([2]; 5×10^5 CFU/mL): 1 µg/mL (≈ 0.693 µM) | MIC Coagulase Negative Staphylococcus (GC 4551) ([2]; 5×10^5 CFU/mL): 2 µg/mL (≈ 1.39 µM) | MIC Coagulase Negative Staphylococcus (GC 6257) ([2]; 5×10^5 CFU/mL): 1 µg/mL (≈ 0.693 µM) | MIC Staphylococcus aureus (ATCC 29213) ([2]; 5×10^5 CFU/mL): 2 µg/mL (≈ 1.39 µM) | MIC Staphylococcus aureus (GC 1131) ([2]; 5×10^5 CFU/mL): 4 µg/mL (≈ 2.77 µM) | MIC Staphylococcus aureus (GC 3051) ([2]; 5×10^5 CFU/mL): 2 µg/mL (≈ 1.39 µM) | MIC Staphylococcus aureus (GC 3053) ([2]; 5×10^5 CFU/mL): 8 µg/mL (≈ 5.54 µM) | MIC Staphylococcus aureus (GC 4541) ([2]; 5×10^5 CFU/mL): 2 µg/mL (≈ 1.39 µM) | MIC Staphylococcus aureus (GC 4542) ([2]; 5×10^5 CFU/mL): 2 µg/mL (≈ 1.39 µM) | MIC Staphylococcus aureus (GC 4544) ([2]; 5×10^5 CFU/mL): 2 µg/mL (≈ 1.39 µM) | MIC Staphylococcus aureus (GC 4545) ([2]; 5×10^5 CFU/mL): 2 µg/mL (≈ 1.39 µM) | MIC Staphylococcus aureus-SMITH (GC 4543) ([2]; 5×10^5 CFU/mL): 2 µg/mL (≈ 1.39 µM) | MIC Staphylococcus aureus (ATCC 29213) ([2]; strain ATCC 29213): 2 µg/mL (≈ 1.39 µM) | MIC Staphylococcus aureus (GC 1131) ([2]; strain GC 1131): 4 µg/mL (≈ 2.77 µM) | MIC Staphylococcus aureus (GC 3051) ([2]; strain GC 3051): 2 µg/mL (≈ 1.39 µM) | MIC Staphylococcus aureus (GC 3053) ([2]; strain GC 3053): 8 µg/mL (≈ 5.54 µM) | MIC Staphylococcus aureus (GC 4541) ([2]; strain GC 4541): 2 µg/mL (≈ 1.39 µM) | MIC Staphylococcus aureus (GC 4542) ([2]; strain GC 4542): 2 µg/mL (≈ 1.39 µM) | MIC Staphylococcus aureus-SMITH (GC 4543) ([2]; strain GC 4543): 2 µg/mL (≈ 1.39 µM) | MIC Staphylococcus aureus (GC 4544) ([2]; strain GC 4544): 2 µg/mL (≈ 1.39 µM) | MIC Staphylococcus aureus (GC 4545) ([2]; strain GC 4545): 2 µg/mL (≈ 1.39 µM) | MIC Coagulase Negative Staphylococcus (GC 4547) ([2]; strain GC 4547): 2 µg/mL (≈ 1.39 µM) | MIC Coagulase Negative Staphylococcus (GC 4548) ([2]; strain GC 4548): 1 µg/mL (≈ 0.693 µM) | MIC Coagulase Negative Staphylococcus (GC 4549) ([2]; strain GC 4549): 1 µg/mL (≈ 0.693 µM) | MIC Coagulase Negative Staphylococcus (GC 4551) ([2]; strain GC 4551): 2 µg/mL (≈ 1.39 µM) | MIC Coagulase Negative Staphylococcus (GC 6257) ([2]; strain GC 6257): 1 µg/mL (≈ 0.693 µM) | MIC Streptococcus pneumoniae (ATCC 6301) ([3]; strain ATCC 6301): 0.25 µg/mL (≈ 0.173 µM) | MIC Streptococcus pneumoniae (GC 1894) ([3]; strain GC 1894): 0.12 µg/mL (≈ 0.0831 µM) | MIC Streptococcus pyogenes (GC 4563) ([3]; strain GC 4563): 0.5 µg/mL (≈ 0.346 µM) | MIC Streptococcus agalactiae (GC 4564) ([3]; strain GC 4564): 1 µg/mL (≈ 0.693 µM) | MIC Streptococcus pneumoniae (GC 4565) ([3]; strain GC 4565): 0.25 µg/mL (≈ 0.173 µM) | MIC Escherichia coli (ATCC 25922) ([4]; strain ATCC 25922): >64 µg/mL | MIC Escherichia coli (GC 4559) ([4]; strain GC 4559): 32 µg/mL (≈ 22.2 µM) | MIC Escherichi coli (GC 4560) ([4]; strain GC 4560): 1 µg/mL (≈ 0.693 µM)
Compound: COc1cc(OC)cc(C2OCC3OC(OC4C(CO)OC(Oc5ccc(CC6NC(=O)C(C(C)c7ccccc7)NC(=O)CNC(=O)C(CO)NC(=O)C(C(O)C7CNC(=N)N7C7OC(CO)C(O)C(O)C7O)NC(=O)C(C(O)C7CNC(=N)N7)NC6=O)cc5)C(O)C4O)C(O)C(O)C3O2)c1 (stereo not drawn) [Example 150, Cyclo[glycyl-β-methylphenylalanyl-O-[4-O-[4,6-O-(3,5-dimethoxybenzylidene)hexopyranosyl]-hexopyranosyl]tyrosyl-3-(2-iminoimidazolidin-4-yl)seryl-3-(3-hexopyranosyl-2-iminoimidazolidin-4-yl)serylseryl]]
MIC Staphylococcus haemolyticus (GC 4546) ([2]; 5×10^5 CFU/mL): 1 µg/mL (≈ 0.693 µM) | MIC Staphylococcus haemolyticus (GC 4546) ([2]; strain GC 4546): 1 µg/mL (≈ 0.693 µM)
